Experimental findings from ChEMBL document CHEMBL5500383, “Recent advances and future directions on small molecule VEGFR inhibitors in oncological conditions” (Eur J Med Chem, 2024) are described below.

Data set [1] has as its target Serine/threonine-protein kinase pim-1 (Homo sapiens, UniProt P11309). The data set can be described thus: Inhibition of PIM-1 (unknown origin).
Data set [2] has as its system MCF7. The data set can be described thus: Antiproliferative activity against human MCF7 cells assessed as inhibition of cell growth. Type of data set: functional, cell-based.
Data set [3] relates to PC-3. As to the kind of experiment: Antiproliferative activity against human PC-3 cells assessed as inhibition of cell growth. Type of data set: functional, cell-based.
Data set [4] has as its system HepG2. As to the kind of experiment: Antiproliferative activity against human HepG2 cells assessed as cell growth inhibition incubated for 24 hrs by MTT assay. Type of data set: functional, cell-based. To be noted: HepG2, 24 h. For orientation: Tetrazolium dyes change colour on reduction, which living cells bring about.
A further data set deals with Caco-2. As to the kind of experiment: Antiproliferative activity against human Caco-2 cells assessed as reduction in cell growth. Type of data set: functional, cell-based.
The target in data set [5] is T1, Vascular endothelial growth factor receptor 2 (Homo sapiens, UniProt P35968). As to the kind of experiment: Inhibition of VEGFR2 (unknown origin).
T1 sequence (P35968 whole entry): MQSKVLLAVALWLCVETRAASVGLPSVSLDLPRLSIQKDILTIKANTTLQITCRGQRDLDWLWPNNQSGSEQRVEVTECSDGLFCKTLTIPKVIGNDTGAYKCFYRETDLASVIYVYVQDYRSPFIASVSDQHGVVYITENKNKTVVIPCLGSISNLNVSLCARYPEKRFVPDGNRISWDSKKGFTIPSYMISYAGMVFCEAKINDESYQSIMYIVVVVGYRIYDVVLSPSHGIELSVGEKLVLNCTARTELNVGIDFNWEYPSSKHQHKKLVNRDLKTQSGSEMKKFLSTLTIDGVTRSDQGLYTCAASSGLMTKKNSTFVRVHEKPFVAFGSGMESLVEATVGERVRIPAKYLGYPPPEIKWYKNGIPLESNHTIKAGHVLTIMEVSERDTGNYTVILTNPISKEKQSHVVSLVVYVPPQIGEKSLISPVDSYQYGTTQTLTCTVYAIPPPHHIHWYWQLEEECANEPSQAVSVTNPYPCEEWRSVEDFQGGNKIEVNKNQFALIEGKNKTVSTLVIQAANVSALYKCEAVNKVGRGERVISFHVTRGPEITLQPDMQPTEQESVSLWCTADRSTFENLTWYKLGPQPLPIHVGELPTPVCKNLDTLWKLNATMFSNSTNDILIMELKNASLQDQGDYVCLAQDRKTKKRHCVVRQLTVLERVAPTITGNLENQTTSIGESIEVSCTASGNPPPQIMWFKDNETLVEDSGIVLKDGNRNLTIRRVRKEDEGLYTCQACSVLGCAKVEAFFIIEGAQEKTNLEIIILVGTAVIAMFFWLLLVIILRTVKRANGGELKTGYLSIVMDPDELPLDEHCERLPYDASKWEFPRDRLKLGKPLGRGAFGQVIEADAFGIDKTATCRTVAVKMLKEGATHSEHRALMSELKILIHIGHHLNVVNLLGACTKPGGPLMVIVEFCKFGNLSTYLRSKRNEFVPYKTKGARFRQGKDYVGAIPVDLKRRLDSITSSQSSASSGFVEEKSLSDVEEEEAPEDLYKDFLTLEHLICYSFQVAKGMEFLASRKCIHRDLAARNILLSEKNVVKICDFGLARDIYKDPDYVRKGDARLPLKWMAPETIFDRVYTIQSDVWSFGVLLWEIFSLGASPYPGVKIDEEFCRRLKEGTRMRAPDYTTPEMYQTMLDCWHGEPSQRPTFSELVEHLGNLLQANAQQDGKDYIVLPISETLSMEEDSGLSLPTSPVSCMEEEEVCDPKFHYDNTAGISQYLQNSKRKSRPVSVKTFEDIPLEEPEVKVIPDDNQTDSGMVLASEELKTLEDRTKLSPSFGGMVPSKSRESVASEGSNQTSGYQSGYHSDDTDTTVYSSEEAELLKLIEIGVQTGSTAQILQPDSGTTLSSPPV
Data set [6] relates to HepG2. The data set can be described thus: Antiproliferative activity against human HepG2 cells assessed as reduction in cell growth. Type of data set: functional, cell-based.
Data set [7] concerns PC-3. The data set can be described thus: Antiproliferative activity against human PC-3 cells assessed as cell growth inhibition incubated for 24 hrs by MTT assay. Type of data set: functional, cell-based. The following applies: PC-3, 24 h.
In a further data set the test system is SF-539. The data set can be described thus: Antiproliferative activity against human SF-539 cells assessed as inhibition of cell growth at 10 uM after 48 hrs by sulforhodamine B assay relative to control. Type of data set: functional. Also noted: scale not given: the % may be the effect or the level left.
Data set [8] has as its target T1, Vascular endothelial growth factor receptor 2. The data set can be described thus: Inhibition of VEGFR2 (unknown origin) incubated for 1 hr in presence of ATP by ELISA method. (In general: In an ELISA, binding on a coated surface is turned into a signal by an enzyme label.)
Data set [9] relates to HepG2. As to the kind of experiment: Cytotoxicity against human HepG2 cells assessed as reduction in cell viability incubated for 72 hrs by MTT assay. Type of data set: functional, cell-based. The following applies: HepG2, 72 h.
The test system of data set [10] is HCT-116. As to the kind of experiment: Cytotoxicity against human HCT-116 cells assessed as reduction in cell viability incubated for 72 hrs by MTT assay. Type of data set: functional, cell-based. The following applies: HCT-116, 72 h.
Data set [11] has as its system MCF7. The data set can be described thus: Cytotoxicity against human MCF7 cells assessed as reduction in cell viability incubated for 72 hrs by MTT assay. Type of data set: functional, cell-based. The following applies: MCF7, 72 h.
Data set [12] deals with T1, Vascular endothelial growth factor receptor 2. As to the kind of experiment: Inhibition of VEGFR2 (unknown origin) by FRET based assay.
The test system of data set [13] is MCF7. The data set can be described thus: Antiproliferative activity against human MCF7 cells assessed as reduction in cell viability. Type of data set: functional, cell-based.
Data set [14] can be described thus: Cytotoxicity against human HUVEC cells assessed as reduction in cell viability by CCK-8 assay. Type of data set: toxicity, cell-based.
In data set [15] the target is Hepatocyte growth factor receptor (Homo sapiens, UniProt P08581). As to the kind of experiment: Inhibition of c-Met (unknown origin).
Hepatocyte growth factor receptor, sequence (P08581 whole entry): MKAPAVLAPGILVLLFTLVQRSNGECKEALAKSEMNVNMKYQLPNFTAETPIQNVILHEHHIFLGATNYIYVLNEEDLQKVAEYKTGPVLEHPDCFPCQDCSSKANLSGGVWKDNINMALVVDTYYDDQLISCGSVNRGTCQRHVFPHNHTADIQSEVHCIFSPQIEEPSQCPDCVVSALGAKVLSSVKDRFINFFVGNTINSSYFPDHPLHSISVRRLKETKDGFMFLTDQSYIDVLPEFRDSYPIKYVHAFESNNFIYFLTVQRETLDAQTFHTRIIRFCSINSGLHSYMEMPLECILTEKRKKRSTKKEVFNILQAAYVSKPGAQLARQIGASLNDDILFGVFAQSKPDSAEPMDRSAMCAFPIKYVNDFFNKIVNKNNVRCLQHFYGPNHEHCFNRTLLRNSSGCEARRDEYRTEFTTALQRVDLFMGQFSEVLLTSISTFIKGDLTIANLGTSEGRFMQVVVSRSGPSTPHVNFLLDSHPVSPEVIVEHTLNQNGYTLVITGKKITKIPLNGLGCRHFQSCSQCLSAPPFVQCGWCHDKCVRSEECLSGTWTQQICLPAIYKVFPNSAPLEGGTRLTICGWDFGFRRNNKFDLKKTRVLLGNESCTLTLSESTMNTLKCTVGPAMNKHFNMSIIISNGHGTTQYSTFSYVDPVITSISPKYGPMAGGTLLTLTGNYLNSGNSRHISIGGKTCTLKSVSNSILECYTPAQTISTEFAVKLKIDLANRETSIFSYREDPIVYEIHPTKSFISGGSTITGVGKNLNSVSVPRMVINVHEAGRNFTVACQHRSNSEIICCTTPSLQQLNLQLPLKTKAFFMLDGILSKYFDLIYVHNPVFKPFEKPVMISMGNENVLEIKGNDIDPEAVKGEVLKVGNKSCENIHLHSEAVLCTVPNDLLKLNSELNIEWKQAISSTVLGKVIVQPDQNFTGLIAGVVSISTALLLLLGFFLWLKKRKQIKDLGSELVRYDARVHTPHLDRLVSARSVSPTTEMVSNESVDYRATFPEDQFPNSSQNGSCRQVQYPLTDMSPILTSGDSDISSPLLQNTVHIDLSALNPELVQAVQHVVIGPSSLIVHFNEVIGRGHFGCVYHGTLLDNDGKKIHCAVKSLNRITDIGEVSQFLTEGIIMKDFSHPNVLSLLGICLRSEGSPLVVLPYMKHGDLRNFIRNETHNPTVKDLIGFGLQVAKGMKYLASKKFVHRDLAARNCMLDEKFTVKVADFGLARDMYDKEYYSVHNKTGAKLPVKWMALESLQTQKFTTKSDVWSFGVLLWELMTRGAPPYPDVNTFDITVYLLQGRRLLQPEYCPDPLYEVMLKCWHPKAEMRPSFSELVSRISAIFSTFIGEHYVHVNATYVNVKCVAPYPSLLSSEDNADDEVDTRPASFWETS
For the next data set, the system named is MHCC97H. As to the kind of experiment: Antiproliferative activity against human MHCC97H cells assessed as reduction in cell viability incubated for 48 hrs by CCK-8 assay. Type of data set: functional, cell-based.
The target of data set [16] is T1, Vascular endothelial growth factor receptor 2. As to the kind of experiment: Inhibition of human recombinant VEGFR2.
Data set [17] concerns HepG2. As to the kind of experiment: Antiproliferative activity against human HepG2 cells assessed as reduction in cell growth incubated for 24 hrs by MTT assay. Type of data set: functional, cell-based. The following applies: HepG2, 24 h.
Data set [18] concerns HCT-116. The data set can be described thus: Antiproliferative activity against human HCT-116 cells assessed as reduction in cell growth incubated for 24 hrs by MTT assay. Type of data set: functional, cell-based. To be noted: HCT-116, 24 h.
For data set [19], the target named is T1, Vascular endothelial growth factor receptor 2. The data set can be described thus: Inhibition of human VEGFR-2 by ELISA method.
Data set [20] deals with MCF7. The data set can be described thus: Antiproliferative activity against human MCF7 cells assessed as reduction in cell growth incubated for 24 hrs by MTT assay. Type of data set: functional, cell-based. To be noted: MCF7, 24 h.
For data set [21], the system named is HCT-116. The data set can be described thus: Cytotoxicity against human HCT-116 cells assessed as reduction in cell growth incubated for 48 hrs by MTT assay. Type of data set: functional, cell-based. The following applies: HCT-116, 48 h.
Data set [22] has as its system HepG2. The data set can be described thus: Cytotoxicity against human HepG2 cells assessed as reduction in cell growth incubated for 48 hrs by MTT assay. Type of data set: functional, cell-based. To be noted: HepG2, 48 h.
Data set [23] has as its system MCF7. The data set can be described thus: Cytotoxicity against human MCF7 cells assessed as reduction in cell viability incubated for 48 hrs by MTT assay. Type of data set: functional, cell-based. To be noted: MCF7, 48 h.
Data set [24] deals with T1, Vascular endothelial growth factor receptor 2. As to the kind of experiment: Inhibition of VEGFR2 (unknown origin) using Poly-(Glu,Tyr 4:1) peptide as substrate incubated for 1 hr by ELISA method.
For data set [25] the target is unchanged. The data set can be described thus: Inhibition of GST-tagged human recombinant VEGFR2.
In another data set the test system is WI-38. The data set can be described thus: (§1) Antiproliferative activity against human WI-38 cells assessed as cell growth inhibition incubated for 24 hrs by MTT assay. Type of data set: toxicity, cell-based. To be noted: wi-38.
For data set [26], the target named is RAC-alpha serine/threonine-protein kinase (Homo sapiens, UniProt P31749). The data set can be described thus: Inhibition of AKT1 (unknown origin).
RAC-alpha serine/threonine-protein kinase, sequence (P31749 whole entry): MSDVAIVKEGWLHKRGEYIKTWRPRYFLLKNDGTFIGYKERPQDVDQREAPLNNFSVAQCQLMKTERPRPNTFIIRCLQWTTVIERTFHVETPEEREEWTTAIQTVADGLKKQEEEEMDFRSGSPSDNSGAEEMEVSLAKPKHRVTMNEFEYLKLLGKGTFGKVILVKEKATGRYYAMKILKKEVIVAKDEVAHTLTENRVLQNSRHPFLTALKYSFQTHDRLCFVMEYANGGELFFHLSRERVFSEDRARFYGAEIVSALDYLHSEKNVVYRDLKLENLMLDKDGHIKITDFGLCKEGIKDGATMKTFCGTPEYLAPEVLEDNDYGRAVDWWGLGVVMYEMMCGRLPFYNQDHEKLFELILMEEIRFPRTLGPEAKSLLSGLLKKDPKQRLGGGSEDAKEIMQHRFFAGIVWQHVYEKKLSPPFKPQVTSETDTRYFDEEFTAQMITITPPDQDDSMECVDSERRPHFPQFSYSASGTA
Data set [27] relates to HCT-116. The data set can be described thus: Antiproliferative activity against human HCT-116 cells assessed as inhibition of cell growth incubated for 24 hrs by MTT assay. Type of data set: functional, cell-based. The following applies: HCT-116, 24 h.
Data set [28] concerns MCF7. As to the kind of experiment: Antiproliferative activity against human MCF7 cells assessed as inhibition of cell growth incubated for 24 hrs by MTT assay. Type of data set: functional, cell-based. The following applies: MCF7, 24 h.
The test system of data set [29] is HepG2. As to the kind of experiment: Antiproliferative activity against human HepG2 cells assessed as inhibition of cell growth incubated for 24 hrs by MTT assay. Type of data set: functional, cell-based. The following applies: HepG2, 24 h.
Data set [30] relates to MCF7. As to the kind of experiment: Cytotoxicity against human MCF7 cells assessed as reduction in cell viability. Type of data set: functional, cell-based.
A short description of data set [31]: as §1. Type of data set: toxicity, cell-based. To be noted: human, WI-38 cells.

Serine/threonine-protein kinase pim-1, sequence (P11309 whole entry): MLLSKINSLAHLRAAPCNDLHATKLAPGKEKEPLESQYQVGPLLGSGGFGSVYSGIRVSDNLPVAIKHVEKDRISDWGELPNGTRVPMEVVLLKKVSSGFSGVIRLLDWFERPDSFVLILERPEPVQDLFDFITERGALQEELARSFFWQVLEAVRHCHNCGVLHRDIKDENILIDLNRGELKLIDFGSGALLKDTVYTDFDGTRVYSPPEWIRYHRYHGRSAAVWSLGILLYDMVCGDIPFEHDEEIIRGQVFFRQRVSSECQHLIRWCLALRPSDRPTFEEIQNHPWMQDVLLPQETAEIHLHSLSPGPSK

In general, IC50 refers to the concentration that inhibits the measured activity by half. For the compound `COc1ccc(-c2cc(-c3ccc(OC)c(OC)c3)c3c(N)c(C(=O)c4ccc(C)cc4)sc3n2)cc1OC`, the IC50 in data set [1] worked out at 7.95 µM; in the data set with MCF7 [2] it was 0.01 µM; in the data set with PC-3 [3], 0.01 µM; in the data set with HepG2 [4], 0.006 µM; in the data set with Caco-2 it was 0.02 µM; in data set [5] it was 5.87 µM. Further, the half-maximal inhibitory concentration (IC50) worked out at 0.006 µM in the data set with HepG2 [6] and 0.019 µM in the data set with PC-3 [7].

In the case of `CNC(=O)c1nc(Nc2ccc(NC(=O)Nc3cccc(OC)c3)cc2)c2ccccc2n1`, the Activity with SF-539 is recorded as 47.8%. Also, the IC50 in data set [8] is 40.3 µM.

Turning to `CCOC(=O)c1ccc(NC(=O)c2ccc(NC(=O)CN3C(=O)S/C(=C\c4ccccc4)C3=O)cc2)cc1`, the figures for the IC50 in the data set with HepG2 [9], in the data set on HCT-116 [10] and in the data set on MCF7 [11] were 11.2 µM, 8.99 µM and 7.1 µM, respectively.

As for `O=C(CN1CCN(c2cc(=O)[nH]c3c(-c4ccccc4)cccc23)CC1)Nc1ccc(F)cc1`, it took 0.0388 µM to reach half-maximal inhibition in [12] (IC50).

As for `COCCOCCOCCOCCOCCOC(=O)c1cc(C(=O)OCCOCCOCCOCCOCCOC)cc(-n2cc(Cn3ncc4ccccc4c3=O)nn2)c1`, in the data set with MCF7 [13], the 50% inhibitory concentration (IC50) was determined as 8.84 µM.

As for `COCCOc1cc2ncnc(Nc3ccc(NC(=O)CC(=O)Nc4ccc(F)cc4)cc3F)c2c2c1OCCO2`, the concentration for half-maximal inhibition (IC50) came out at 0.0008 µM in [14], 0.0058 µM in data set [15], 0.0048 µM in [5] and 0.0157 µM in the data set on MHCC97H.

Turning to `Cc1[nH]c2ncnc(Nc3ccc(NC(=O)Nc4cccc(C(F)(F)F)c4)c(F)c3)c2c1C`, the concentration for half-maximal inhibition (IC50) in [16] came to 0.0524 µM.

As for `CCn1c(SCC(=O)Nc2ccc(/C(C)=N/O)cc2)nc2ccccc2c1=O`, the half-maximal inhibitory concentration (IC50) in the data set on HepG2 [17] was determined as 3.97 µM; in the data set on HCT-116 [18], 4.58 µM; in data set [19], 2.5 µM; with MCF7 [20], 4.83 µM.

Take `Cc1cc(C)nc(NS(=O)(=O)c2ccc(/N=N/c3ccc(C4=NCC(=O)N(C)c5ccc(Cl)cc54)cc3)cc2)n1`: the IC50 in the data set on HCT-116 [21] was found to be 7.77 µM; in the data set with HepG2 [22] it was 8.98 µM; with MCF7 [23] it was 6.99 µM; in data set [24], 0.0001 µM.

`CN1CCC2=C1C1C(=O)NC(c3ccccc3)=NC1S2` (stereo not drawn): the half-maximal inhibitory concentration (IC50) is 0.126 µM in [25]; 12.5 µM in the data set on WI-38; 3.11 µM with HepG2 [4]; 6.96 µM in data set [26]; 2.15 µM with PC-3 [7].

For the compound `C/C(=N\NC(=O)c1ccccc1O)c1ccc(NC(=O)CSc2nc3ccccc3c(=O)n2-c2ccccc2)cc1`, the IC50 in the data set with HCT-116 [27] was determined as 6.77 µM; in the data set with MCF7 [28], 5 µM; with HCT-116 [18], 3.74 µM; in data set [19] it was 0.34 µM; with HepG2 [29], 3.74 µM.

Consider `Cc1ccc2oc(CCCC(=O)Nc3ccc(S(=O)(=O)NC(=O)NC4CCCCC4)cc3)nc2c1`, for which the half-maximal inhibitory concentration (IC50) in the data set on MCF7 [30] came to 5.5 µM; in data set [5] it was 0.07 µM.

As for `CCOC(=O)c1c(NC(=S)Nc2cc(C)ccc2Cl)sc2c1N(C)CC2`, the IC50 at 24 h in data set [31] worked out at 35.3 µM. For the same compound, the results for the 50% inhibitory concentration (IC50) in the data set on HepG2 [4] and with PC-3 [7] were 3.02 µM and 3.12 µM, respectively.
